Measured values published in PMC9204602, “Optimized Anchor-Modified Peptides Targeting Mutated RAS Are Promising Candidates for Immunotherapy” (Frontiers in Immunology, 2022).
Like-named read-outs stand apart in the source and are kept apart here. No end group written: not given here.

What was measured:
HLA-A*02:01 = HLA-A*02:01 (Homo sapiens, UniProt P04439, D140Y/D185E/D98H/E176V/E277Q/G131W/G231S/I119V/I121R/I166T/I218V/L300P/L318F/N151K/N90K/P208A/P217A/Q86G/Q94H/R138H/R169H/T345S); assay: MHC-I stabilization assay, TAP-deficient T2 cells; assay type: binding
HLA-A*11:01 = HLA-A*11:01 (Homo sapiens, UniProt P04439, A114D/D185E/E176A/F33Y/L180Q/S129P/T187R); assay: Cell-based competitive MHC-I-binding assay, CJO-A lymphoblastoid cells
HLA-A*03:01 = HLA-A*03:01 (Homo sapiens, UniProt P04439); assay type: binding
[1] = system: transgenic humanized HLA-A2/DR1 mice; assay: Immunization of transgenic humanized HLA-A2/DR1 mice, ex vivo splenocyte stimulation; assay type: in vivo, mouse
[2] = Table S2, […], competition with 500 nM FITC-labelled KVFPK(FITC)ALINK, serum-free RPMI, 4 hours, 37°C, peptide from 100 µM, flow cytometry, analyzed three times, mean, read-out: EC/IC50 (M) Binding assay: IC50, HLA-A*11:01
[3] = Table 1, T2 cells, HLA-A*02:01 stabilization, serum-free RPMI, 4 hours, 37°C, peptide from 100 µM in at least 8 serial dilution steps, flow cytometry MFI (BB7.2), half-maximal MFI, analyzed three times, mean, read-out: EC50 (µM) Binding assay

Row | Compound | EC50 (HLA-A*02:01; [3]) [µM] | other results
1 | CC(C)C[C@H](NC(=O)[C@@H](N)CCCCN)C(=O)N[C@H](C(=O)N[C@H](C(=O)N[C@H](C(=O)NCC(=O)N[C@@H](C)C(=O)N[C@@H](C)C(=O)NCC(=O)N[C@H](C(=O)O)C(C)C)C(C)C)C(C)C)C(C)C | – | EC50 (HLA-A*02:01): 50.2 µM
2 | CC(C)[C@H](N)C(=O)N[C@H](C(=O)NCC(=O)N[C@@H](C)C(=O)N[C@@H](CO)C(=O)NCC(=O)N[C@H](C(=O)NCC(=O)N[C@@H](CCCCN)C(=O)O)C(C)C)C(C)C | – | IC50 (HLA-A*11:01; [2]): 1.27e-05 M
3 | CC(C)[C@H](N)C(=O)N[C@H](C(=O)N[C@H](C(=O)NCC(=O)N[C@@H](C)C(=O)N[C@@H](CO)C(=O)NCC(=O)N[C@H](C(=O)NCC(=O)N[C@@H](CCCCN)C(=O)O)C(C)C)C(C)C)C(C)C | – | IC50 (HLA-A*11:01; [2]): 1.02e-05 M
4 | CC[C@H](C)[C@H](NC(=O)[C@@H](N)CO)C(=O)N[C@H](C(=O)N1CCC[C@H]1C(=O)N[C@@H](CO)C(=O)NCC(=O)N1CCC[C@H]1C(=O)N[C@@H](CC(C)C)C(=O)N[C@@H](CCCCN)C(=O)O)[C@@H](C)CC [Flu-MP 13-21, reference compound] | – | IC50 (HLA-A*11:01): 1.44e-06 M
5 | CC[C@H](C)[C@H](N)C(=O)N[C@@H](CC(C)C)C(=O)N[C@@H](CCCNC(=N)N)C(=O)NCC(=O)N[C@@H](CO)C(=O)N[C@H](C(=O)N[C@@H](C)C(=O)N[C@@H](Cc1c[nH]cn1)C(=O)N[C@@H](CCCCN)C(=O)O)C(C)C [Flu-NP 265-273, reference compound] | – | EC50 (HLA-A*03:01): 6.33 µM
6 | KLVVVGARGV | – | EC50 (HLA-A*02:01): 151 µM
7 | KLVVVGASGV | – | EC50 (HLA-A*02:01): 72 µM
8 | LLVVGAAGV | 17.5 | –
9 | LLVVGACGV | 73.5 | –
10 | LLVVGADGV | 83.4 | –
11 | LLVVGARGV | 23.7 | –
12 | LLVVGASGV | 90.6 | –
13 | LLVVGAVGV | 25.6 | –
14 | LVVVGAAGV | 191 | –
15 | LVVVGACGV | 619 | –
16 | LVVVGADGV | 453 | –
17 | LVVVGARGV | – | EC50 (HLA-A*02:01): 429 µM
18 | LVVVGASGV | – | EC50 (HLA-A*02:01): 581 µM
19 | MTEYKL L VVGA V GV GKSALTIQLIQNHFVDE [31-mer G12V peptide] | – | CD8+ T cells in the spleen reacting to the minimal L2-9-mer peptide ([1]; 100 μg peptide s.c. days 0, 14, 21 with 25 μg Poly I:C and 10 μg Pan-DR peptide, splenocytes one week after third injection restimulated overnight with 10 μg/mL peptide, intracellular IFN-γ, 5 mice): about 8%; Recognition of CFPAC-1 cells by CD8+ T cells of immunized mice ([1]; same immunization, HLA-A*02:01-positive/G12V-positive CFPAC-1, overnight incubation, intracellular IFN-γ): recognized; Recognition of the wild-type peptide by CD8+ T cells of immunized mice ([1]; same immunization, ex vivo restimulation with WT-9-mer): did not recognize; Share of L2-9-mer-reactive CD8+ T cells that also reacted to the original 9-mer epitope ([1]; same immunization, ex vivo restimulation with original 9-mer): half
20 | VVGAAGVGK | – | IC50 (HLA-A*11:01): 1.12e-05 M; EC50 (HLA-A*03:01): 277 µM

Row | Compound | EC50 (HLA-A*02:01; [3]) [µM] | other results
21 | VVGARGVGK | – | IC50 (HLA-A*11:01; [2]): 0.000157 M
22 | VVVGAAGVGK | – | IC50 (HLA-A*11:01): 7.03e-06 M; EC50 (HLA-A*03:01): 94 µM
23 | VVVGARGVGK | – | IC50 (HLA-A*11:01): 4.61e-05 M; EC50 (HLA-A*03:01): 69.7 µM
24 | YLVVGAAGV | 16.4 | –
25 | YLVVGACGV | 26.1 | –
26 | YLVVGADGV | 13.4 | –
27 | YLVVGARGV | – | EC50 (HLA-A*02:01): 15.6 µM
28 | YLVVGASGV | – | EC50 (HLA-A*02:01): 21.2 µM
29 | YLVVGAVGV | 22.9 | –
30 | YLVVVGAAGV | 27.7 | –
31 | YLVVVGACGV | 95.5 | –
32 | YLVVVGADGV | 5.68 | –
33 | YLVVVGASGV | 10.7 | –
34 | YLVVVGAVGV | 15.5 | –
35 | YVVVGAAGV | 117 | –
36 | YVVVGACGV | 138 | –
37 | YVVVGADGV | 199 | –
38 | YVVVGARGV | 51.6 | –
39 | YVVVGASGV | 207 | –
40 | YVVVGAVGV | 28.3 | –
